Assay: Distribution of intravenously administered FITC-labeled NIPA nanoparticles in uveal tissue
Settings: 12 hours after intravenous administration; FIG. 3

For fluorescein-isothiocyanate [FITC], the “presence / accumulation in uveal tissue” value was “no accumulation”.
